Test results as given in US11773399B2, “Methods and compositions for enhancing polypeptide production” (priority 2009, dated 2023).

Assays:
[1] = system: H2O2 in leaves; test: In situ H2O2 detection in leaves, DAB staining; type: in vivo, N. benthamiana
Excerpt: Staining for H2O2 in leaves which correlates with the presence of reactive oxygen species (ROS) is detected by an endogenous peroxidase-dependent staining procedure, using 3,3-diaminobenzidine (DAB). This assay provides a comparative in situ measure of the ROS levels in planta (Thordal-Christensen et al., 1997).

[2] = system: plant transient bioproduction system; test: Transient expression of a 94 kDa human glycoprotein, Western blot; type: in vivo; conditions: 20 mM co-infiltrated AsA, 72 hrs post-infiltration
Protocol: Transient infiltration was done according Medrano et al (2009), with some modifications as follows. Briefly, an A. tumefaciens inoculum integrated with the binary vector pBIB-Kan encoding IL-12 was cultured under standard conditions for 2 days at 28° C. The bacterial cultures were centrifuged and resuspended to a final OD600 of 0.2-0.8, in 400 mL of a induction medium (“IM”; 0.5× Murashige and Skoog basal medium salts, 1× MS vitamins, 5% sucrose, 1× benzylaminopurine, 200 μM acetosyringone, pH 5.5). The cultures were incubated in 1M for ≥3 h at 28° C. Vacuum infiltration of 4-5-week-old N. benthamiana was accomplished by inverting a plant into a 400 mL glass beaker containing IM, ensuring that all leaves of the plant are immersed in the media. The beaker was placed in a vacuum desiccator unit (240-mm inner diameter) and using a vacuum pump, maximum pressure (˜25 in. Hg) was applied for 2 min and then quickly released. […]
(§1) Samples were resolved by SDS-PAGE (run under denaturing or reducing conditions) and Western immunoblotting analysis performed. […] Densitometry using the BIORAD® VERSDOC4000™ and QUANT-1® software package was employed and relative protein expression was determined in order to evaluate the effect of antioxidants on plant-made protein expression.

[3] = system: Stable N. tabacum lines; test: hIL-12 expression in stable transgenic lines after vacuum infiltration, Western blot; type: in vivo; conditions: AsA in IM media, leaves 24 and 48 h
Protocol: (§2) Samples were resolved by SDS-PAGE (run under denaturing or reducing conditions) and Western immunoblotting analysis performed. For hIL-12 detection, primary antibody anti-human IL-12 (1:1000 v/v; R&D Systems) and secondary antibody anti-goat IgG-alkaline phosphatase conjugated (1:10,000 v/v; BIORAD®) was used. For chIL-12 detection, anti-6×His (C-term)-alkaline phosphatase conjugated (1:2000 v/v; Invitrogen) was used. Detection on immunoblots was carried out using the CDP-Star chemiluminescent substrate for alkaline phosphatase (Roche, Indianapolis, Ind.) and NitroBlock. Enhancer II (Tropix Inc., Bedford, Mass.) in accordance with manufacturers' procedures. Densitometry using the BIORAD® VERSDOC4000™ and QUANT-1® software package was employed and relative protein expression was determined in order to evaluate the effect of antioxidants on plant-made protein expression.
This finding further supports the concept that increasing the antioxidant capacity of the host plant enhances the overall biosynthesis of the plant in serving as a factory for recombinant protein production.

[4] = system: transient system host plants; test: Foliar ascorbate content of infiltrated host plants, ascorbate oxidase assay; type: in vivo, N. benthamiana; conditions: increasing infiltrated AsA
Protocol: Leaf tissue ground in the presence of liquid nitrogen with mortar/pestle was extracted. The foliar vitamin C content was determined by the ascorbate oxidase assay as previously described (Lorence et al., 2004). Briefly, tissue samples were harvested and immediately frozen in liquid nitrogen and stored at -80° C. till analysis. Samples were ground in 6% (w/v) meta-phosphoric acid, and centrifuged at 15,000×g for 10 min. Reduced vitamin C (a.k.a. ascorbate) was determined by measuring the decline in […] (extinction coefficient of 14.3 cm^-1 mM^-1) after addition of 1 unit of ascorbate oxidase (Sigma) to 1 mL of the reaction mix including tissue extract and 100 mM potassium phosphate (pH 6.9). […] Foliar ascorbate content was determined by a microplate reader-based method described herein. […] Reduced ascorbate was determined in a 300 μL reaction in triplicates by adding 275 μL of 0.1M of potassium phosphate buffer pH 6.9 into a 96-well plate (UV Flat Bottom Microplate, Thermo Scientific) containing 15 μL of sample supernatant. The mix was measured at […] and recorded. The decline in […] was measured after addition of 10 μL (1 U) of ascorbate oxidase (final concentration 0.0033 units of ascorbate oxidase, Sigma). […] The mix was measured at […] and recorded. […] […] was measure using a plate reader (model Power Wave XS, software KC Junior, Biotek).

[5] = system: host plants; test: Toxicity of infiltrated antioxidant to the host plant (necrosis); conditions: for toxicity to the plant: 100 μM
Protocol: Transient infiltration was done according Medrano et al (2009), with some modifications as follows. Briefly, an A. tumefaciens inoculum integrated with the binary vector pBIB-Kan encoding IL-12 was cultured under standard conditions for 2 days at 28° C. The bacterial cultures were centrifuged and resuspended to a final OD600 of 0.2-0.8, in 400 mL of a induction medium (“IM”; 0.5× Murashige and Skoog basal medium salts, 1× MS vitamins, 5% sucrose, 1× benzylaminopurine, 200 μM acetosyringone, pH 5.5). The cultures were incubated in 1M for ≥3 h at 28° C. Vacuum infiltration of 4-5-week-old N. benthamiana was accomplished by inverting a plant into a 400 mL glass beaker containing IM, ensuring that all leaves of the plant are immersed in the media. The beaker was placed in a vacuum desiccator unit (240-mm inner diameter) and using a vacuum pump, maximum pressure (˜25 in. Hg) was applied for 2 min and then quickly released. Additional plants were subject to infiltration using the same construct/antioxidant culture, or replaced with a new beaker of IM containing another construct/antioxidant culture. […] Infiltrated plants were returned to the environmental chamber at conditions established previously during plant growth. In the case of both model transgene constructs, leaves were harvested from plants at 48 h post-infiltration and stored at −80° C. for subsequent analyses.
(§3) Vitamin E and vitamin K were solubilized in chloroform and kept on amber tube on ice. The final concentration range of vitamins E and K tested were 5-100 μM.

[6] = system: N. benthamiana leaves; test: Recovery of purified hIL-12, heterodimer-specific hIL-12 ELISA; type: in vivo; conditions: 20 mM exogenously added AsA vs no antioxidant
Protocol: The amount of hIL-12 expressed in N. benthamiana leaves in the presence or absence of modified antioxidants levels during bioproduction was quantitated using a commercially available heterodimer-specific hIL-12 enzyme-linked immunoabsorbant assay (ELISA) (R&D Systems). To assay hIL-12, leaves were ground in PBS buffer (137 mM NaCl, 2.7 mM KCl, 10.1 mM Na2HPO4, and […] KH2PO4 pH 7.0) at a 1:2 (w/v) ratio and supernatant extracts were analyzed by the ELISA. For hIL-12 detection, the ELISA used monoclonal antibodies specific for hIL-12 p70 for capture (0.2 μg/mL) and biotinylated anti-human IL-12 antibody for detection (4 μg/mL). Streptavidin-HRP (1:200 v/v) was used for chemiluminescence and 3,3′,5,5′-tetramethylbenzidine (TMB; KPL) as a substrate for detection. Densitometry using the BIORAD® VERSDOC4000™ and QUANT-1® software package was employed and was established relative protein expression in order to evaluate the impact of antioxidants on its expression in plants.

[7] = system: N. benthamiana plants; test: Transient chIL-12 expression after vacuum co-infiltration, anti-his Western blot and densitometry; type: in vivo
Protocol: Transient infiltration was done according Medrano et al (2009), with some modifications as follows. Briefly, an A. tumefaciens inoculum integrated with the binary vector pBIB-Kan encoding IL-12 was cultured under standard conditions for 2 days at 28° C. The bacterial cultures were centrifuged and resuspended to a final OD600 of 0.2-0.8, in 400 mL of a induction medium (“IM”; 0.5× Murashige and Skoog basal medium salts, 1× MS vitamins, 5% sucrose, 1× benzylaminopurine, 200 μM acetosyringone, pH 5.5). The cultures were incubated in 1M for ≥3 h at 28° C. Vacuum infiltration of 4-5-week-old N. benthamiana was accomplished by inverting a plant into a 400 mL glass beaker containing IM, ensuring that all leaves of the plant are immersed in the media. The beaker was placed in a vacuum desiccator unit (240-mm inner diameter) and using a vacuum pump, maximum pressure (˜25 in. Hg) was applied for 2 min and then quickly released. Additional plants were subject to infiltration using the same construct/antioxidant culture, or replaced with a new beaker of IM containing another construct/antioxidant culture. A single IM culture was used for infiltrating typically 3 but up to 10 independent plants with no adverse effect on the amount of transgene product expressed and presence of exogenously introduced antioxidant in planta respectively. Infiltrated plants were returned to the environmental chamber at conditions established previously during plant growth. In the case of both model transgene constructs, leaves were harvested from plants at 48 h post-infiltration and stored at −80° C. for subsequent analyses.
Vitamin E and vitamin K were solubilized in chloroform and kept on amber tube on ice. […]
as §1

[8] = system: N. benthamiana plants; test: Transient hIL-12 expression after vacuum co-infiltration, Western blot and densitometry; type: in vivo; conditions: for increase in hIL-12 expression (semi-quantitative densitometry): 20 mM AsA in induction medium, vs construct alone
Protocol: Transient infiltration was done according Medrano et al (2009), with some modifications as follows. Briefly, an A. tumefaciens inoculum integrated with the binary vector pBIB-Kan encoding IL-12 was cultured under standard conditions for 2 days at 28° C. The bacterial cultures were centrifuged and resuspended to a final OD600 of 0.2-0.8, in 400 mL of a induction medium (“IM”; 0.5× Murashige and Skoog basal medium salts, 1× MS vitamins, 5% sucrose, 1× benzylaminopurine, 200 μM acetosyringone, pH 5.5). The cultures were incubated in 1M for ≥3 h at 28° C. Vacuum infiltration of 4-5-week-old N. benthamiana was accomplished by inverting a plant into a 400 mL glass beaker containing IM, ensuring that all leaves of the plant are immersed in the media. The beaker was placed in a vacuum desiccator unit (240-mm inner diameter) and using a vacuum pump, maximum pressure (˜25 in. Hg) was applied for 2 min and then quickly released. Additional plants were subject to infiltration using the same construct/antioxidant culture, or replaced with a new beaker of IM containing another construct/antioxidant culture. A single IM culture was used for infiltrating typically 3 but up to 10 independent plants with no adverse effect on the amount of transgene product expressed and presence of exogenously introduced antioxidant in planta respectively. Infiltrated plants were returned to the environmental chamber at conditions established previously during plant growth. […]
as §3, §2

`O=C1O[C@H]([C@@H](O)CO)C(O)=C1O` [AsA, ascorbic acid] was tested, and the “H2O2 staining (DAB)” value ([1]; 80 mM AsA) was “some staining”, the “H2O2 staining (DAB)” value ([1]; 100 mM AsA) was “clearly detectable” and the “H2O2 staining (DAB)” value ([1]; 20 to 60 mM AsA) was “minimal”. The “stable accumulation of 94 kDa human glycoprotein” value [2] was “enhanced”, the “hIL-12 protein levels in stable transgenic plants” value [3] was “increasing the overall expression of hIL-12 protein levels” and the “in planta foliar AsA levels” value [4] was “dose-dependent increase”. For the same compound, the “effect on leaves/cells of host plants” value ([5]; 80 mM) was “began to show signs of necrosis”, the “effect on leaves/cells of host plants” value ([5]; 80 mM, listed as vitamin C) was “detrimental” and the “effect on leaves/cells of host plants” value ([5]; 100 mM) was “significant necrotic lesions”. For the same compound, the “effect on leaves/cells of host plants” value ([5]; 100 mM, listed as vitamin C) was “detrimental”, the “more purified hIL12 product recovered (ELISA)” value [6] was 20-25% and the “increase in chIL-12 protein expression” value ([7]; 20 mM AsA, 48 h post-infiltration, on average) was roughly 3 fold. For the same compound, the “hIL-12 protein expression levels, dose response” value ([8]; 0, 20, 40, 60 mM AsA) was “dose dependent increase”, the “increase in hIL-12 expression (semi-quantitative densitometry)” value [8] was 25-30% and the “increase in hIL-12 expression (semi-quantitative densitometry)” value ([8]; listed as vitamin C) was roughly 25%. The “monomeric, single-chain hIL12 on Western blot” value ([8]; 20 mM co-infiltrated AsA vs construct alone) was “significant increase”, the “oligomer formation of hIL-12” value ([8]; 48 and 72 h post-infiltration, vs 0 mM AsA) was “abrogates oligomer formation of hIL-12” and the “time hIL-12 is sustained in planta” value ([8]; co-infiltrated AsA vs 0 mM AsA) was “up to 72 h”. For the same compound, the “effective dose range for recombinant protein production” value ([8]; plant transient infiltration system) was 20 to 60 mM.

With vitamin E the “toxicity to the plant” value [5] was “appeared to be toxic”, the “chIL12 protein production at higher concentrations” value ([7]; 50-100 μM) was “reduced improvement in protein production” and the “concentration with greatest impact in transient chIL12 protein expression” value ([7]; dose-response 5-100 mM) was 20 µM. The “transient hIL-12 expression” value ([8]; vitamin E alone) was “no effect on expression”.

For vitamin K, the “toxicity to the plant” value [5] was “detrimental”.
